Key:
α-galactosidase (α-Gal) = molecular target: T1, α-galactosidase (α-Gal) (Homo sapiens, UniProt P06280); assay: Selectivity: alpha-galactosidase activity in fibroblast lysate; format: biochemical; conditions: 10 μM, the highest concentration tested
T1 construct: wild-type fibroblast (CRL2076) pellets (˜2.5e6 cells/pellet) were lysed; host or cells: wild-type fibroblasts CRL2076, lysate
T1 sequence (P06280 32-429): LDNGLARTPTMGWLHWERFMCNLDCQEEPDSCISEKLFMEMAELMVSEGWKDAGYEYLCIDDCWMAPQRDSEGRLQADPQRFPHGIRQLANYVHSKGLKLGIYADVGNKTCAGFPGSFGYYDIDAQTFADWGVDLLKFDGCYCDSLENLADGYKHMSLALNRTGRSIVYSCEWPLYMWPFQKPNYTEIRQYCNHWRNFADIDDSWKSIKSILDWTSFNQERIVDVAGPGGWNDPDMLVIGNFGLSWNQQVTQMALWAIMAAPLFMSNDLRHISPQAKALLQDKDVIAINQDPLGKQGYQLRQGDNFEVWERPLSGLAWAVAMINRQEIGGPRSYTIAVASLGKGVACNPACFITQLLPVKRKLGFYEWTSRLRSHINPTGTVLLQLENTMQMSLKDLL
Text: Enzymatic activity measurements were done in duplicate.

Aβ = Aβ immunohistochemistry (mAb 6E10); format: in vivo, Dutch APP^E693Q transgenic mice; conditions: 100 mg/kg, 3 months
Experimental: (§1) The generation and characterization of Dutch APPE693Q mice transgenic mice is described in Gandy, S., et al. Days to criterion as an indicator of toxicity associated with human Alzheimer amyloid-beta oligomers. Annals of neurology 68, 220-230 (2010). 3-month-old male Dutch APP^E693Q mice transgenic mice were orally gavaged 5 days/week with either vehicle (water) (n=15) or 3, 10, 30 or 100 mg/kg AdDNJ for 3 months (n=13). All animal studies were approved and conducted in accordance with the Institutional Animal Care and Usage Committee. Mice were kept in a pathogen-free environment, on a 12-hour light/dark cycle and given ad libitum access to food and water. At 6 month of age treatment groups, and a 3-month-old untreated baseline group (n=15), were cognitively assessed in the NOR, EPM and FC tests. 48 hours following the final dose mice were perfused with ice-cold 1×PBS. The brain was removed and dissected into two hemispheres. One half was snap-frozen on dry ice and stored at −80° C. for biochemistry; the other half was post-fixed in 4% paraformaldehyde then sagittally sectioned on a vibratome into 30 μm sections and stored at 4° C. in storage buffer until histological analyses.
Aβ was assessed via free-floating immunohistochemistry using mAb 6E10 (1:1000, Covance) as previously described20. GAβ was assessed via free-floating immunohistochemistry using mouse anti-GAβ, clone 4396C (1:100), a gift from Dr. Katsuhiko Yanagisawa as previously described19. Images were captured on an Olympus BX61 upright microscope with an attached Olympus DP71 camera. Integrated density of GAβ staining was measured using Image J (National Institute of Health, Bethesda, Md.).

[1] = test system: Dutch APP^E693Q transgenic mice; assay: Novel object recognition (NOR); format: in vivo; conditions: 3-month course, higher doses (30 or 100 mg/kg)
Experimental: as §1, with “analyses. […]” for “analyses.”
On day 1, the mouse was placed in the NOR arena (20 cm diameter) for 10 min to acclimatize. […] The duration spent exploring the objects was then measured using ANY-maze (Stoelting, Wood Dale, Ill.).

[2] = test system: Dutch APP^E693Q transgenic mice; assay: Elevated plus maze (EPM); format: in vivo; conditions: 3-month course, 3, 10, 30 or 100 mg/kg
Experimental: as §1, with “One half was snap-frozen on dry ice and stored at −80° C. for biochemistry; the other half was post-fixed in 4% paraformaldehyde then sagittally sectioned on a vibratome into 30 μm sections and stored at 4° C. in storage buffer until histological analyses.” left out
The maze in the configuration of a+ and comprised two open arms (35×5×0 cm) across from each other and perpendicular to two closed arms (35×5×16 cm) with a central neutral zone (Stoelting, Wood Dale, Ill.). […] Each trial was videotaped overhead and scored for amount of time spent in the open and closed arms using ANY-maze (Stoelting, Wood Dale, Ill.). […]

CC(=O)NC1CNC(CO)[C@@H](O)C1O (stereo partly drawn) [AdDNJ, 2-acetamido-1,2-dideoxynojirimycin]
inhibition of α-galactosidase (α-Gal) (α-galactosidase (α-Gal)): did not inhibit
Aβ accumulation, CA1 region of the hippocampus (Aβ): no differences were observed
Aβ accumulation, subiculum (Aβ): qualitative region-specific reduction of Aβ accumulation
Aβ accumulation, visual cortex (Aβ): no differences were observed
learning behavior in NOR test [1]: protection from the typical aging-related learning behavior deficits
anxiety in elevated plus maze [2]: reduced anxiety at all doses tested
